# Measured values published in ChEMBL document CHEMBL1212791 (Antimicrob Agents Chemother, 2010).
# What was measured:
# Type in all cases: ADME, organism-based
# [1] = Mean residence time in liver transplant patient with end-stage liver disease at 200 mg/kg, po bid; parameters: dose 200 mg/kg, route oral; conditions: human, in vivo
# [2] = system: Homo sapiens; assay: Plasma concentration in liver transplant patient with end-stage liver disease at 200 mg/kg, po bid; parameters: dose 200 mg/kg, route oral; conditions: in vivo
# [3] = Tmax in liver transplant patient with end-stage liver disease at 200 mg/kg, po bid; parameters: dose 200 mg/kg, route oral; conditions: human, in vivo
# [4] = Cmax in liver transplant patient with end-stage liver disease at 200 mg/kg, po bid; parameters: dose 200 mg/kg, route oral; conditions: human, in vivo
# [5] = Terminal disposition rate in liver transplant patient with end-stage liver disease at 200 mg/kg, po bid; parameters: dose 200 mg/kg, route oral; conditions: human, in vivo, read-out: Activity (converted)
# [6] = AUC (0 to infinity) in liver transplant patient with end-stage liver disease at 200 mg/kg, po bid; parameters: time infinity, dose 200 mg/kg, route oral; conditions: human, in vivo
# [7] = system: Homo sapiens; assay: Clast in liver transplant patient with end-stage liver disease at 200 mg/kg, po bid; parameters: dose 200 mg/kg, route oral; conditions: in vivo
# [8] = Volume of distribution at steady state with respect to bioavailability in liver transplant patient with end-stage liver disease at 200 mg/kg, po bid; conditions: human, in vivo, read-out: Vc/F
# [9] = system: Homo sapiens; assay: AUMC (0 to infinity) in liver transplant patient with end-stage liver disease at 200 mg/kg, po bid; parameters: dose 200 mg/kg, route oral; conditions: in vivo
# [10] = Terminal half life in liver transplant patient with end-stage liver disease at 200 mg/kg, po bid; parameters: dose 200 mg/kg, route oral; conditions: human, in vivo, read-out: beta t1/2 (converted)
structure (smiles),measurement,setting,value
C[C@@H](c1ncncc1F)[C@](O)(Cn1cncn1)c1ccc(F)cc1F [VORICONAZOLE],MRT,[1],78.2 h
same,Cp,[2],1000 ng/mL
same,Tmax,[3],1.8 h
same,Cmax,[4],2900 ng/mL
same,k el,[5],1.67e-05 s⁻¹
same,AUC(0-inf),[6],25900 ng·h/mL
same,Clast,[7],1600 ng/mL
same,Vd/F,[8],94.5 L
same,AUMC,[9],2557.5 hr.hr.ug/ml
same,half-life,[10],15 h
